These are literature values, as cited in publication PMC7401249 (Marine Drugs, 2020).

Entries after “also recorded” stand apart in the source; their conditions may differ.

Turning to ProTx-II, the “hCaV3.2 current block among three CaV3.x subtypes” value with hCaV3.2 is listed as “selectively block the hCaV3.2 current”. For the same substance, the NaV1.7 block entry in the data set with NaV1.7 is reported as “NaV1.7 selective blocker; also recorded: inhibits NaV1.7”.
Regarding ProTx-I, in the data set on CaV3.1, the “inhibition of CaV3.1 current over CaV3.2” value is recorded as “selective inhibition”.
